Test: Nanoindentation (hardness and elastic modulus) of remineralized enamel sections
Parameters: species or system human
Details: demineralization 2 h pH 4.6; 7-day mineralization cycle in artificial saliva, daily application, hydrogels 0.2 mg/ml; mean ± SD
Method: To enhance the mechanical responses, the remineralization cycle was optimized and extended to 7 days. After demineralization, each tooth setting (comprising 3 or 4 teeth sections) was placed into separate cylindrical containers containing remineralization solution (30 ml, pH 7, RT) for 1 week. Experimental groups included healthy enamel, demineralized enamel, control (900 ppm F^−; 0.2% NaF), P26-CS and P32-CS (n = 3 per group).
Every 24 h after the start of the remineralization cycle, 30 μL of NaF solution (900 ppm F^−; 0.2% NaF) was added on top of each tooth for 10 min per day. The teeth were gently rinsed in distilled water and dried. A fresh 20 μl treatment application (P26-CS and P32-CS) was made to each window, followed by air drying for 15 min at RT and then the samples were returned to the fresh stock of remineralization solution. The remineralization solution and peptide were replaced daily. After 1 week of daily treatment application, the slices were sonicated, rinsed, dried, and stored in distilled water at 4°C for nanoindentation. The hardness and elastic modulus of the peptide-mediated mineralized layers were evaluated by nanoindentation tests. The device was calibrated to examine the mechanical properties of the remineralized HAP layers on teeth slices at the nanoscale. […]

[F-].[Na+] [0.2% NaF, NaF]
elastic modulus of regrown enamel (nanoindentation): 40.57 ± 15.8 GPa | hardness of regrown enamel (nanoindentation): 1.3 ± 0.6 GPa

From publication PMC10611442, “Amelogenin Peptide-Chitosan Hydrogel for Biomimetic Enamel Regrowth” (Frontiers in dental medicine, 2021)
